According to a compilation of properties of binary mixtures (doi:10.1016/j.molliq.2017.05.115):

Experiment: xn = mol fraction of the nth substance listed
Conditions: 101 kPa

CC[n+]1ccn(C)c1.COS(=O)(=O)[O-] + CCCCCCCO
speed of sound [m/s]
Conditions	x1 = 0.0836	x1 = 0.1703	x1 = 0.2602	x1 = 0.3537	x1 = 0.4508	x1 = 0.5518	x1 = 0.657	x1 = 0.7665	x1 = 0.8808
298.15 K	1330.6	1341.3	1357.7	1380.4	1410.5	–	1499.2	–	1646.1
303.15 K	1319.6	1330.5	1346.9	1369.7	1399.9	1438.8	1488.8	–	1636.2
308.15 K	1299.7	1310.5	1327	–	1380.2	1419.4	1469.8	1534.7	1619.5
